Experimental data reported in patent US20180050993A1, “NOVEL FLUORINATED DERIVATIVES AS EGFR INHIBITORS USEFUL FOR TREATING CANCERS” (Trillium Therapeutics Inc., priority 2015, published 2018).
Counter-ions that a name gives are not always drawn. Like-named read-outs stand apart in the source and are kept apart here.

What was measured:
[1] = system: M14; assay: NCI screening panel, growth %; format: cell-based, human; conditions: Melanoma
Experimental: (§1) After 24 h, two plates of each cell line are fixed in situ with TCA, to represent a measurement of the cell population for each cell line at the time of drug addition (Tz). Experimental drugs are solubilised in dimethyl sulfoxide at 400-fold the desired final maximum test concentration and stored frozen prior to use. At the time of drug addition, an aliquot of frozen concentrate is thawed and diluted to twice the desired final maximum test concentration with complete medium containing 50 μg/ml gentamicin. Additional four, 10-fold or log serial dilutions are made to provide a total of five drug concentrations plus control. Aliquots of 100 μl of these different drug dilutions are added to the appropriate microtiter wells already containing 100 μl of medium, resulting in the required final drug concentrations.
(§2) Following drug addition, the plates are incubated for an additional 48 h at 37° C., 5% CO2, 95% air, and 100% relative humidity. For adherent cells, the assay is terminated by the addition of cold TCA (trichloroacetic acid). Cells are fixed in situ by the gentle addition of 50 μl of cold 50% (w/v) TCA (final concentration, 10% TCA) and incubated for 60 minutes at 4° C. The supernatant is discarded, and the plates are washed five times with tap water and air dried. Sulforhodamine B (SRB) solution (100 μl) at 0.4% (w/v) in 1% acetic acid is added to each well, and plates are incubated for 10 minutes at room temperature. After staining, unbound dye is removed by washing five times with 1% acetic acid and the plates are air dried. Bound stain is subsequently solubilised with 10 mM trizma base, and the absorbance is read on an automated plate reader at a wavelength of 515 nm. For suspension cells, the methodology is the same except that the assay is terminated by fixing settled cells at the bottom of the wells by gently adding 50 μl of 80% TCA (final concentration, 16% TCA). Using the seven absorbance measurements [time zero, […], control growth, (C), and test growth in the presence of drug at the five concentration levels (Ti)], the percentage growth is calculated at each of the drug concentration levels. Percentage growth inhibition is calculated as: [(Ti−Tz)/(C−Tz)]×100 for concentrations in which Ti>/=Tz and [(Ti−Tz)/Tz]×100 for concentrations in which Ti<Tz.
(§3) Three dose response parameters are calculated for each experimental agent. […] The drug concentration resulting in total growth inhibition (TGI) is calculated from Ti=Tz. […] Values are calculated for each of these three parameters if the level of activity is reached. However, if the effect is not reached or is exceeded, the value for that parameter is expressed as greater or less than the maximum or minimum concentration tested.

[2] = system: KM12; assay: NCI screening panel, growth %; format: cell-based, human; conditions: Colon
Experimental: as §1, §2, §3

[3] = system: SN12C; assay: NCI screening panel, growth %; format: cell-based, human; conditions: Renal
Experimental: as §1, §2, §3

[4] = system: T-47D; assay: NCI screening panel, growth %; format: cell-based, human; conditions: Breast
Experimental: as §1, §2, §3

[5] = system: LOX IMVI; assay: NCI screening panel, growth %; format: cell-based, human; conditions: Melanoma
Experimental: as §1, §2, §3

[6] = system: MCF7; assay: NCI screening panel, growth %; format: cell-based, human; conditions: Breast
Experimental: as §1, §2, §3

[7] = system: SK-MEL-5; assay: NCI screening panel, growth %; format: cell-based, human; conditions: Melanoma
Experimental: as §1, §2, §3

[8] = system: MDA-MB-468; assay: NCI screening panel, growth %; format: cell-based, human; conditions: Breast
Experimental: as §1, §2, §3

[9] = system: HCT-116; assay: NCI screening panel, growth %; format: cell-based, human; conditions: Colon
Experimental: as §1, §2, §3

[10] = system: COLO 205; assay: NCI screening panel, growth %; format: cell-based, human; conditions: Colon
Experimental: as §1, §2, §3

[11] = system: OVCAR-4; assay: NCI screening panel, growth %; format: cell-based, human; conditions: Ovarian
Experimental: as §1, §2, §3

[12] = system: SNB-75; assay: NCI screening panel, growth %; format: cell-based, human; conditions: CNS
Experimental: as §1, §2, §3

[13] = system: EKVX; assay: NCI screening panel, growth %; format: cell-based, human; conditions: NSCLC
Experimental: as §1, §2, §3

[14] = system: HCT-15; assay: NCI screening panel, growth %; format: cell-based, human; conditions: Colon
Experimental: as §1, §2, §3

[15] = system: SF-295; assay: NCI screening panel, growth %; format: cell-based, human; conditions: CNS
Experimental: as §1, §2, §3

[16] = system: DU-145; assay: NCI screening panel, growth %; format: cell-based, human; conditions: Prostate
Experimental: as §1, §2, §3

[17] = system: CCRF-CEM; assay: NCI screening panel, growth %; format: cell-based, human; conditions: Leukemia
Experimental: as §1, §2, §3

[18] = system: SW-620; assay: NCI screening panel, growth %; format: cell-based, human; conditions: Colon
Experimental: as §1, §2, §3

[19] = system: HS 578T; assay: NCI screening panel, growth %; format: cell-based, human; conditions: Breast
Experimental: as §1, §2, §3

[20] = system: OVCAR-5; assay: NCI screening panel, growth %; format: cell-based, human; conditions: Ovarian
Experimental: as §1, §2, §3

[21] = system: SF-268; assay: NCI screening panel, growth %; format: cell-based, human; conditions: CNS
Experimental: as §1, §2, §3

[22] = system: NCI-H522; assay: NCI screening panel, growth %; format: cell-based, human; conditions: NSCLC
Experimental: as §1, §2, §3

[23] = system: OVCAR-3; assay: NCI screening panel, growth %; format: cell-based, human; conditions: Ovarian
Experimental: as §1, §2, §3

[24] = system: SK-MEL-2; assay: NCI screening panel, growth %; format: cell-based, human; conditions: Melanoma
Experimental: as §1, §2, §3

[25] = Brain concentrations after PO administration in rat, peak at 8 hours (Table 5); format: in vivo; conditions: Table 5 (8 hours); for Kp at 8 h: brain/plasma, po, 50 mg/kg
[26] = target: T1, P-gp (Homo sapiens, UniProt P08183); assay: Evaluation of P-gp efflux in Caco-2 cell monolayers; format: in vitro ADME;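 note: Caco-2 monolayers dosed apically or basolaterally with test compound at 5 µM in HBSS with HEPES and glucose, 37 °C, donor and receiver sampled after 120 min, LC/MS peak areas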
T1 construct: host or cells: Caco-2 (C2BBe1)

[27] = system: HCC827; assay: Comparison with 1st generation inhibitors against a lung cancer cell line (HCC827); format: cell-based; conditions: Homo sapiens, read-out: Biochemical IC50
[28] = Sprague-Dawley, brain, PO 50 mg/kg

T1 sequence (P08183 whole entry): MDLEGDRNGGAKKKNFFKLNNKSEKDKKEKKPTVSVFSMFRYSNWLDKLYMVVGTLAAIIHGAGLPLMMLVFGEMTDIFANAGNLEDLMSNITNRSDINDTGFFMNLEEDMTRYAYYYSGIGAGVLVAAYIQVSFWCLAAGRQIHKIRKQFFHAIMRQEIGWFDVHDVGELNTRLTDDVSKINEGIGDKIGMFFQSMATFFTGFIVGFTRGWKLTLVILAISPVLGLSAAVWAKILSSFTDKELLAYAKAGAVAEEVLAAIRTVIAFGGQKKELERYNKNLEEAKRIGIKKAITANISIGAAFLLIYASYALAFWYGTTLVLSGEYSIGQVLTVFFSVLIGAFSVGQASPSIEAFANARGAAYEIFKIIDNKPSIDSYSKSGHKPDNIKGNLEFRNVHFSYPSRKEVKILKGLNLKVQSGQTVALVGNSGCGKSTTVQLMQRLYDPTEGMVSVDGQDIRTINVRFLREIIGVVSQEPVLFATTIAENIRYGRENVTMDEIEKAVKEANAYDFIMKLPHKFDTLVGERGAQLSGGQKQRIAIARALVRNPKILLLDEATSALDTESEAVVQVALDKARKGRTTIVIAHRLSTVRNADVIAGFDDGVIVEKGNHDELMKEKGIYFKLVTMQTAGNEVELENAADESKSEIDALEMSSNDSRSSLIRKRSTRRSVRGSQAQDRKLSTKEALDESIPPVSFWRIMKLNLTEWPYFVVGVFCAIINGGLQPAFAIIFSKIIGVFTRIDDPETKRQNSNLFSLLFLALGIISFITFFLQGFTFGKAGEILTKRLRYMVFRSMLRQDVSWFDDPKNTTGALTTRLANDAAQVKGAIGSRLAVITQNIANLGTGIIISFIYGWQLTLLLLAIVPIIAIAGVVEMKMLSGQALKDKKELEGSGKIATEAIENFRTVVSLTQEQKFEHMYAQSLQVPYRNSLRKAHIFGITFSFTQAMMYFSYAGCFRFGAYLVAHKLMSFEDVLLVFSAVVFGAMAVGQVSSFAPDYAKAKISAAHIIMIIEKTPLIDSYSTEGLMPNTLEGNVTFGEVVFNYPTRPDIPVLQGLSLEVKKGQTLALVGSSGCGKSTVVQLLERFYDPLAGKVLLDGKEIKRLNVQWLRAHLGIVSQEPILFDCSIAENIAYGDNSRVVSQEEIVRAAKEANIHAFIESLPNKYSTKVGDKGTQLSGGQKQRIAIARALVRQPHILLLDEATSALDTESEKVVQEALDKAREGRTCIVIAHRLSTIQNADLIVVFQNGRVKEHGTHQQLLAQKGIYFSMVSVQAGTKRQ

Q: With `Fc1ccc(Nc2ncnc3cc(OCCOC(F)F)c(OCCOC(F)F)cc23)c(F)c1Cl` [Compound 2D•HCl, N-(3-chloro-2,4-difluoro-phenyl)-6,7-bis[2-(difluoromethoxy)ethoxy]quinazolin-4-amine] as the compound, how does the Growth % [1] read?
A: Its Growth % is 59.47%.

Q: And the Growth % [2]?
A: Its Growth % is 85.84%.

Q: And the Growth % [3]?
A: Its Growth % is 59.26%.

Q: And the Growth % [4]?
A: The Growth % was 19.78%.

Q: And the Growth % [5]?
A: Its Growth % is 52.34%.

Q: And the Growth % [6]?
A: Its Growth % is 66.06%.

Q: What about the Growth % [7] of the same compound?
A: The Growth % was 74.60%.

Q: And the Growth % [8]?
A: The Growth % was −39.62%.

Q: And the Growth % [9]?
A: The Growth % was 81.03%.

Q: And the Growth % [10]?
A: Its Growth % is 77.41%.

Q: And the Growth % [11]?
A: Its Growth % is 0.00%.

Q: What about the Growth % [12] of the same compound?
A: Its Growth % is 57.99%.

Q: And the Growth % [13]?
A: Its Growth % is 48.49%.

Q: And the Growth % [14]?
A: The Growth % was 55.49%.

Q: And the Growth % [15]?
A: Its Growth % is 76.73%.

Q: And the Growth % [16]?
A: Its Growth % is 35.29%.

Q: What about the Growth % [17] of the same compound?
A: The Growth % was 75.53%.

Q: And the Growth % [18]?
A: The Growth % was 91.49%.

Q: What about the Growth % [19] of the same compound?
A: Its Growth % is 68.48%.

Q: What about the Growth % [20] of the same compound?
A: The Growth % was 26.63%.

Q: And the Growth % [21]?
A: Its Growth % is 70.93%.

Q: What about the Growth % [22] of the same compound?
A: Its Growth % is 24.07%.

Q: What about the Growth % [23] of the same compound?
A: Its Growth % is 60.72%.

Q: What about the Growth % [24] of the same compound?
A: The Growth % was 79.82%.

Q: And the Cmax [25, 28]?
A: The Cmax was 6340 ng/g.

Q: What about the Tmax [25, 28] of the same compound?
A: Its Tmax is 8 h.

Q: What about the Kp at 8 h ([25]; Sprague-Dawley, read-out: AUCLast Ratio (Brain/Plasma)) of the same compound?
A: The Kp at 8 h was 1.92.

Q: And the Kp at 8 h ([25]; Sprague-Dawley, read-out: Cmax Ratio (Brain/Plasma))?
A: Its Kp at 8 h is 2.07.

Q: And the AUCInf ([25]; brain, PO 50 mg/kg)?
A: Its AUCInf is 101339 ng·h/g.

Q: And the AUClast ([25]; brain, PO 50 mg/kg)?
A: Its AUClast is 99996 ng·h/g.

Q: What about the recovery at 120 min, 5 μM ([26]; Caco-2, pH 7.4, with none (verapamil 0 μM), Caco-2, Verapamil 0 μM, read-out: Recovery (%) AP-BL) of the same compound?
A: Its recovery at 120 min, 5 μM is 21.8%.

Q: And the recovery at 120 min, 5 μM ([26]; Caco-2, pH 7.4, with none (verapamil 0 μM), Caco-2, Verapamil 0 μM, read-out: Recovery (%) BL-AP)?
A: Its recovery at 120 min, 5 μM is 30.4%.

Q: And the recovery at 120 min, 5 μM ([26]; Caco-2, pH 7.4, with verapamil 100 μM, Caco-2, Verapamil 100 μM, read-out: Recovery (%) AP-BL)?
A: Its recovery at 120 min, 5 μM is 29.7%.

Q: And the recovery at 120 min, 5 μM ([26]; Caco-2, pH 7.4, with verapamil 100 μM, Caco-2, Verapamil 100 μM, read-out: Recovery (%) BL-AP)?
A: Its recovery at 120 min, 5 μM is 28.9%.

Q: And the Papp A→B at 120 min, 5 μM ([26]; pH 7.4, Caco-2, Verapamil 0 μM)?
A: Its Papp A→B at 120 min, 5 μM is 4.02 ×10⁻⁶ cm/s.

Q: And the Papp B→A at 120 min, 5 μM ([26]; pH 7.4, Caco-2, Verapamil 0 μM)?
A: The Papp B→A at 120 min, 5 μM was 2.33 ×10⁻⁶ cm/s.

Q: What about the efflux ratio at 120 min, 5 µM ([26]; pH 7.4, Caco-2, Verapamil 0 μM) of the same compound?
A: Its efflux ratio at 120 min, 5 µM is 0.58.

Q: And the IC50 [27]?
A: Its IC50 is 17 nM.
